According to patent US10723716B2, “Alpha-helix mimetics as modulators of Abeta self-assembly” (New York University, priority 2016, dated 2020):
Entries after “also recorded” stand apart in the source; their conditions may differ.

Assays:
[1] = molecular target: T1, Aβ42 (Homo sapiens, UniProt P05067); experiment: Dot blot assay with A11 antibody; type: biochemical; settings: Aβ42, equimolar ratio, whole time course
T1 construct: Cleavage of APP results in several Aβ isoforms; The predominant species are Aβ42 and Aβ40; purchased Anaspec (Fremont, Calif., USA)
T1 sequence (P05067 672-713 limits assumed): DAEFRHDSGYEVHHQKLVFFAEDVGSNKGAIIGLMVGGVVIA
Experimental: Samples of Aβ42 at concentrations from 2 μM to 5 μM were incubated at various time intervals in the absence and presence of the compounds of the invention at an equimolar ratio (see FIG. 4j). The samples were then applied to a nitrocellulose membrane and dried at room temperature for 1 h or overnight at 4° C. The membranes were then blocked with 5% nonfat milk in Tris buffer (20 mM Tris, pH 7.4) for 1 h at room temperature. The nitrocellulose membranes were then washed (×3) with 20 mM Tris, pH 7.4 supplemented with 0.01% Tween-20 (TBST) and incubated with polyclonal A11 antibody (1/1000 dilution in 5% nonfat milk in TBST, Life Technologies Corp., Grand Island, N.Y., USA) overnight at 4° C. Samples were then washed (×3) with TBST buffer and incubated with horseradish peroxidase (HRP) conjugated anti-rabbit IgG (1/500 dilution in 5% nonfat free milk in TBST) at r.t. for 1 h. The dot blots were then washed with TBST buffer (×3), developed using the ECL reagent kit (Amersham, Piscataway, N.J., USA), and imaged using a Typhoon FLA 9000 instrument (GE Healthcare Life Sciences, Pittsburgh, Pa., USA) using chemiluminescence settings. A similar experiment was repeated using 6E10 antibody ( 1/1000 dilution in 5% nonfat free milk in TBST, Biolegend, San Diego, Calif., USA) for comparison.

[2] = test system: Aβ42 mediated toxicity in mouse neuroblastoma (N2a) cells; experiment: Aβ42 mediated toxicity in Neuro-2a cells (MTS cell viability); type: cell-based; settings: for cell viability: 5 μM Aβ42, equimolar ratio, 72 h; for effect on Aβ42 mediated cytotoxicity: equimolar ratio, Neuro-2a cells
Experimental: Cell viability was determined using a CellTiter 96® AQueous One Solution Cell Proliferation Assay (MTS) kit (Promega), which measures the reduction of the tetrazolium compound MTS (3-(4,5-dimethylthiazol-2-yl)-5-(3-carboxymethoxyphenyl)-2-(4-sulfophenyl)-2H-tetrazolium, inner salt) to soluble formazan by mitochondrial dehydrogenase enzyme in living cells. Formazan can be measured at 490 nm according to the manufacturer's instructions.
Neuro-2a cells (ATCC® […]) were maintained in serum-containing media [Dulbecco's Modified Eagle's Medium—high glucose (DMEM, Sigma) supplemented with 10% foetal bovine serum (FBS), 4 mM L-Glutamine (Sigma), and 1% penicillin/streptomycin (Sigma)] in 5% CO2 at 37° C. Once the cells reached ˜95% confluence, they were split (using 0.25% trypsin-EDTA, Sigma, St. Louis, USA), seeded at a density of 5×10^3 cells/well in 100 μL complete medium in 96-well plates and cultured for 48 h. Thereafter, the media was removed, the cells washed with phosphate buffered saline (PBS), and 90 μL of serum-free DMEM was added to the wells. A solution (A) containing 50 μM Aβ42 in NaOH (pH 10.5) was prepared and kept on ice, and a solution (B) containing 50 μM of the oligopyridylamide compound, H2O (2.33 μL/well) and 1× and 10×PBS was prepared and kept at room temperature. The solutions were combined, vortexed and 10 μL of this solution immeadiatly added to each well. The final concentrations in the wells were: 5 μM Aβ42, 5 μM oligopyridylamide, 200 μM NaOH, 0.1×PBS and 0.5% (v/v) DMSO.
To investigate the toxic effect of the peptide alone on cell viability, solution (B) without the oligopyridylamide compound was mixed with solution (A), while the effect of the oligopyridylamide compound alone was determined by adding solution (A) without peptide to solution (B). The effect of oligopyridylamides on seed-catalyzed Aβ42 aggregation was probed by preparing an additional solution (C) containing 0.5 μM seeds. The volume contributed by solution (C) was taken into account in preparing solution (B). Solution (C) was mixed with solution (B), and the resulting mixture was then added to solution (A) shortly before addition to the wells. To study the effect of oligopyridylamides on the oligomeric states of Aβ42, solution (A) was mixed with solution (B) without inhibitor and incubated at room temperature for 1, 2 or 3 h. Subsequently, 50 μM oligopyridylamides was added to the mixture, which was then immediately added to the cells. After culturing for 72 h in 5% CO2 at 37° C., 20 μL of MTS reagent was added to each well. The MTS reagent was incubated for 2.5 h at 37° C., and absorbance of the soluble formazan product (λ=490 nm) of MTS reduction was measured on a Synergy H1MF Multi-Mode microplate-reader (BioTek, Winooski, Vt., USA), with a reference wavelength of 650 nm to subtract the background. Wells treated with a solution containing serum-free DMEM, 200 μM NaOH, 0.1×PBS and 0.5% (v/v) DMSO served as control. MTS reduction was determined from the ratio of the absorbance of the treated wells to the control wells. Each data point represents an average of four independent quadruplet-well trials.

[3] = molecular target: T1, Aβ42; experiment: ELISA with Aβ oligomer-specific antibody (OMAB); type: biochemical; settings: for Aβ42 oligomers by ELISA on delayed addition: 2 μM Aβ42, compound added at 3 h and 6 h, equimolar; for ELISA absorbance (soluble Aβ42 oligomers, OMAB): Aβ42 incubated with compound, equimolar ratio, all time points
Experimental: The ELISA was performed according to a previously published method (see Lindhagen-Persson, M.; Brännström, K.; Vestling, M.; Steinitz, M.; Olofsson, A. PLoS ONE 2010, 5, e13928). A Nunc-Immuno MaxiSorp plate (Sigma Aldrich, St. Louis, Mo., USA) was incubated with 2 μg mL^−1 Aβ oligomer-specific antibody (OMAB, Agrisera, Sweden) in PBS buffer overnight at 4° C. (200 μl/well). Wells were blocked with 5% fat-free milk in PBS buffer with 0.1% Tween 20 (PBST) for 1 h at 4° C. and washed with PBST buffer (×3). Wells were then treated with Aβ42 samples overnight at 4° C. […] Samples were diluted by 1:30 in PBS buffer before adding to a 96-well plate. After adding Aβ42 samples, the wells were washed (×3) with PBST buffer followed by the addition of 6E10 antibody (1/1000 dilution in 5% nonfat free milk in PBST buffer) for 1 h at r.t. Wells were washed (×5) with PBST buffer and treated with an anti-mouse HRP-conjugated IgG (1/10,000 dilution in 5% nonfat free milk in PBST buffer). Wells were washed (×5) with PBST buffer and treated with TMB Peroxidase EIA Substrate Kit (Biorad, Hercules, Calif., USA). The plates were developed until the color of the solution turned blue. The reaction was stopped by adding 100 μL of 1N H2SO4 to each well. The color of the solution changed to yellow from blue. The absorbance was recorded at 450 nm on a FlexStation 3 Multi-Mode Microplate reader from Molecular Devices (Sunnyvale, Calif., USA). Each sample was repeated in triplicate.

[4] = compound added to 5 μM Aβ42 after 1 h from start of amyloid reaction, Aβ42 alone 46%
[5] = compound added to 5 μM Aβ42 after 2 h from start of amyloid reaction, Aβ42 alone 57%
[6] = compound added to 5 μM Aβ42 after 3 h from start of amyloid reaction, Aβ42 alone 62%

Row | A11 signal intensity of the dots [1] | Aβ42 oligomers by ELISA on delayed addition [3] | ELISA absorbance (soluble Aβ42 oligomers, OMAB) [3] | Compound | cell viability [2] | rank order for the antagonist activity ([2]; Aβ42 mediated cytotoxicity and aggregation, 5 μM, 1:1 (FIG. 26a)) | cell viability, preformed Aβ42 oligomers [2, 4] [%] | cell viability, preformed Aβ42 oligomers [2, 5] [%] | cell viability, preformed Aβ42 oligomers [2, 6] [%] | effect on Aβ42 mediated cytotoxicity [2]
1 | significantly weaker | no evidence of oligomers | significantly lower | COC(=O)c1ccc(NC(=O)c2ccc(NC(=O)c3ccc([N+](=O)[O-])c(OCc4ccccc4)n3)c(OCCCN)n2)c(OCCCN)n1 [ADH-41] | 98±2% | ADH41>ADH46>ADM-40≥ADM-45A | 72 | 68 | 67 | completely inhibited; also recorded: effective at rescuing cells; also recorded: equally effective; also recorded: completely rescues
2 | weak intensities | no evidence of oligomers | significantly lower | COC(=O)c1ccc(NC(=O)c2ccc(NC(=O)c3ccc(NC(=O)c4ccc([N+](=O)[O-])c(OCC(C)C)n4)c(OCc4ccccc4)n3)c(OCC(=O)O)n2)c(OCC(=O)O)n1 [ADH-31] | 97%±1% |  | 90 | 89 | 95 | effective at rescuing cells
